From patent US20260285857A1, “BICYCLIC AND HETEROCYCLIC AMIDE COMPOUNDS” (priority 2024, published 2026)

Each compound was assayed on immunoglobulin light chain protein WIL-FL T46L (assay: Differential scanning fluorimetry (thermal shift) assay). Settings: Table A; temperature shift [Tm]compound-[Tm]vehicle; recombinant WIL-FL T46L.
Assay type: binding
`Cc1cc(N2CC[C@](C)(c3ccccc3)C2)cn2nc(C(=O)NC3COCC3(C)C(=O)O)nc12` (stereo partly shown) [Compound 180] was tested, and the DSF was “***** (>2.5° C.=*****)”.
`CNC(=O)c1nc2c(C)cc(N3CCC(C)(c4ncco4)C3)cn2n1` (stereo not shown) [Compound 14, N,8-dimethyl-6-(3-methyl-3-(oxazol-2-yl)pyrrolidin-1-yl)-[1,2,4]triazolo[1,5-a]pyridine-2-carboxamide] was tested, and the DSF was “** (>0.5-1 °C =**)”.
For `Cc1cc(N2CC[C@](C)(c3ccccc3)C2)cn2nc(C(=O)NC3CCN(c4cccc(-c5nnn[nH]5)n4)CC3)nc12` [Compound 285], the DSF was “***** (>2.5° C.=*****)”.
`Cc1cc(N2CC3(CCC3c3ccccc3)C2)cn2nc(C(=O)N3C[C@@H]4CN(c5cccc(C(=O)O)n5)C[C@@H]4C3)nc12` (stereo partly shown) [Compound 291] was tested, and the DSF was “***** (>2.5° C.=*****)”.
For `Cc1n[nH]c(C2C3COC2(c2nc4c(C)cc(N5CC[C@](C)(c6ccccc6)C5)cn4n2)C3)n1` (stereo partly shown) [Compound 74], the DSF was “***** (>2.5° C.=*****)”.
With `CCC1(c2ccccc2)CN(c2cc(C)c3nc(C(=O)N4CCC5(CCN(c6cccc(C(=O)O)n6)C5)C4)nn3c2)C1` (stereo not shown) [Compound 394] the DSF was “***** (>2.5° C.=*****)”.
For `Cc1cc(N2CC[C@](C)(c3ccccc3)C2)cn2nc(C(=O)N[C@@H]3CNCC34CC4)nc12` [Compound 186], the DSF was “***** (>2.5° C.=*****)”.
For `Cc1cc(OC[C@H](C)c2ccccc2)cn2nc(C(=O)NC3CC4(C3)CC(N3CC5C(C3)C5C(=O)O)C4)nc12` (stereo partly shown) [Compound 314], the DSF was “***** (>2.5° C.=*****)”.
With `Cc1cc(N2CC[C@](C)(c3ccccc3)C2)cn2nc(C(=O)N[C@@H]3CCNC3)nc12` [Compound 102] the DSF was “***** (>2.5° C.=*****)”.
With `Cc1cc(N2CC[C@](C)(c3ccccc3)C2)cn2nc(C34COC(C3)C4C(N)=O)nc12` (stereo partly shown) [Compound 69] the DSF was “**** (>1.5-2.5° C.=****)”.
In the case of `Cc1cc(OC[C@H](C)c2ccccc2)cn2nc(C(=O)NC3CC4(CC(O)C4)C3)nc12` (stereo partly shown) [Compound 313], the DSF is reported as “***** (>2.5° C.=*****)”.
`Cc1cc(N2CC[C@](C)(c3ccccc3)C2)cn2nc(C(=O)NC3CC4(C3)CC(N3CC5C(CC(=O)O)C5C3)C4)nc12` (stereo partly shown) [Compound 356] was tested, and the DSF was “***** (>2.5° C.=*****)”.
`Cc1cc(N2CC[C@](C)(c3ccccc3)C2)cn2nc(C(=O)N3CCC4(CCN(c5cccc(C(=O)O)n5)C4)C3)nc12` (stereo partly shown) [Compound 258] was tested, and the DSF was “***** (>2.5° C.=*****)”.
In the case of `Cc1cc(N2CC(C)(C)C(C)(c3ccccc3)C2)cn2nc(C(=O)N3C[C@@H]4CN(c5cccc(C(=O)O)n5)C[C@@H]4C3)nc12` (stereo partly shown) [Compound 298], the DSF is reported as “** (>0.5-1 °C =**)”.
For `Cc1cc(N2CC[C@](C)(c3ccccc3)C2)cn2nc(C(=O)NC3CCN(c4cccc(C(=O)O)n4)C3)nc12` (stereo partly drawn) [Compound 19, 6-(3-(8-methyl-6-((R)-3-methyl-3-phenylpyrrolidin-1-yl)-[1,2,4]triazolo[1,5-a]pyridine-2-carboxamido)pyrrolidin-1-yl)picolinic acid], the DSF was “***** (>2.5° C.=*****)”.
In the case of `Cc1cc(N2CCC(C)(c3nn[nH]n3)C2)cn2nc(C(=O)N3C[C@@H]4CN(c5cccc(C(=O)O)n5)C[C@@H]4C3)nc12` (stereo partly shown) [Compound 401, 6-[5-[8-methyl-6-[3-methyl-3-(2H-tetrazol-5-yl)pyrrolidin-1-yl]-[1,2,4]triazolo[1,5-a]pyridine-2-carbonyl]-1,3,3a, 4,6,6a-hexahydropyrrolo[3,4-c]pyrrol-2-yl]pyridine-2-carboxylic acid], the DSF is reported as “* (0-0.5° C.=*)”.
`Cc1cc(N2CC[C@](C)(c3ccccc3)C2)cn2nc(C(=O)NC3CN(c4cccc(C(=O)O)n4)C3)nc12` [Compound 217] was tested, and the DSF was “***** (>2.5° C.=*****)”.
In the case of `Cc1ccc([C@@]2(C)CCN(c3cc(C)c4nc(C(=O)N5C[C@@H]6CN(c7cccc(C(=O)O)n7)C[C@@H]6C5)nn4c3)C2)cc1` [Compound 414], the DSF is reported as “***** (>2.5° C.=*****)”.
With `Cc1cc(N2CC[C@](C)(c3ccccc3)C2)cn2nc(C(=O)N3CCC4(CCN(c5ccnc(C(=O)O)c5)C4)C3)nc12` (stereo partly shown) [Compound 257] the DSF was “***** (>2.5° C.=*****)”.
In the case of `Cc1cc(N2CC[C@](C)(c3ccccc3)C2)cn2nc(C(=O)NC3COC4(CCOC4)C3)nc12` (stereo partly shown) [Compound 145], the DSF is reported as “***** (>2.5° C.=*****)”.
`Cc1cc(N2CC[C@](C)(c3ccccc3)C2)cn2nc(C(=O)NC3CN(CC(=O)O)CC3O)nc12` (stereo partly shown) [Compound 110] was tested, and the DSF was “***** (>2.5° C.=*****)”.
In the case of `Cc1cc(N2CC[C@](C)(c3ccccc3)C2)cn2nc(C(=O)NC3CCN(c4cccc(C(=O)O)n4)CC3)nc12` [Compound 276], the DSF is reported as “***** (>2.5° C.=*****)”.
For `CNC(=O)C12COC(c3nc4c(C)cc(N5CC[C@](C)(c6ccccc6)C5)cn4n3)(C1)C2c1n[nH]c(C)n1` (stereo partly shown) [Compound 41], the DSF was “***** (>2.5° C.=*****)”.
`Cc1cc(N2CC[C@](C)(c3ccccc3)C2)cn2nc(C(=O)N3Cc4nc(-c5cccc(C(=O)O)n5)oc4C3)nc12` [Compound 250] was tested, and the DSF was “***** (>2.5° C.=*****)”.
In the case of `CCC1(c2cccc(C)c2)CN(c2cc(C)c3nc(C(=O)N4C[C@@H]5CN(c6cccc(C(=O)O)n6)C[C@@H]5C4)nn3c2)C1` [Compound 397], the DSF is reported as “***** (>2.5° C.=*****)”.
For `Cc1cc(N2CC[C@](C)(c3ccccc3)C2)cn2nc(C(=O)NCC34COC(C(=O)O)(C3)C4)nc12` [Compound 209], the DSF was “***** (>2.5° C.=*****)”.
With `Cc1cc(N2CCC(C)(c3nnn(C)n3)C2)cn2nc(C(=O)N3C[C@@H]4CN(c5cccc(C(=O)O)n5)C[C@@H]4C3)nc12` (stereo partly shown) [Compound 35, 6-[5-[8-methyl-6-[3-methyl-3-(2-methyltetrazol-5-yl)pyrrolidin-1-yl]-[1,2,4]triazolo[1,5-a]pyridine-2-carbonyl]-1,3,3a, 4,6,6a-hexahydropyrrolo[3,4-c]pyrrol-2-yl]pyridine-2-carboxylic acid] the DSF was “*** (>1-1.5° C.=***)”.
`Cc1cc(N2CC[C@](C)(c3ccccc3)C2)cn2nc(C(=O)N[C@H]3CCN(CC(F)F)C3)nc12` [Compound 193] was tested, and the DSF was “***** (>2.5° C.=*****)”.
In the case of `CCC1(c2ccccc2)CN(c2cc(C)c3nc(C(=O)NC4CCN(c5cccc(C(=O)O)n5)CC4)nn3c2)C1` [Compound 390], the DSF is reported as “***** (>2.5° C.=*****)”.
With `Cc1cccc(C2CCC23CN(c2cc(C)c4nc(C(=O)N5CC[C@@]6(CCN(c7cccc(C(=O)O)n7)C6)C5)nn4c2)C3)c1` (stereo partly drawn) [Compound 17, 6-((5R)-7-(8-methyl-6-(5-(m-tolyl)-2-azaspiro[3.3]heptan-2-yl)-[1,2,4]triazolo[1,5-a]pyridine-2-carbonyl)-2,7-diazaspiro[4.4]nonan-2-yl)picolinic acid] the DSF was “***** (>2.5° C.=*****)”.
For `Cc1cc(N2CC[C@](C)(c3ccccc3)C2)cn2nc(C(=O)NC3CCC(c4ccc(C(=O)O)c(F)c4)CC3)nc12` (stereo partly shown) [Compound 224], the DSF was “***** (>2.5° C.=*****)”.
In the case of `Cc1cc(N2CC[C@](C)(c3ccccc3)C2)cn2nc([C@]34CO[C@H](C3)C(N)C4)nc12` (stereo partly shown) [Compound 68], the DSF is reported as “**** (>1.5-2.5° C.=****)”.

Same assay, conditions: Table B; temperature shift [Tm]compound-[Tm]vehicle; recombinant WIL-FL T46L
`Cc1nc([C@@H]2[C@]3(C(C)(C)O)CO[C@@]2(c2nc4c(C)cc(N5CC[C@](C)(c6ccccc6)C5)cn4n2)C3)n[nH]1` [Compound 542] was tested, and the DSF was “***** (>2.5° C.=*****)”.
`Cc1cc(N2CC[C@](C)(c3ccccc3)C2)cn2nc(C34CC(COCC(=O)O)(CO3)C4)nc12` [Compound 459, 2-[[1-[8-methyl-6-[(3R)-3-methyl-3-phenyl-pyrrolidin-1-yl]-[1,2,4]triazolo[1,5-a]pyridin-2-yl]-2-oxabicyclo[2.1.1]hexan-4-yl]methoxy]acetic acid] was tested, and the DSF was “***** (>2.5° C.=*****)”.
In the case of `Cc1cc(N2CC[C@](C)(c3ccccc3)C2)cn2nc(C(=O)NC3CCC34CC(O)C4)nc12` (stereo partly drawn) [Compound 676, N-(2-hydroxyspiro[3.3]heptan-7-yl)-8-methyl-6-[(3R)-3-methyl-3-phenyl-pyrrolidin-1-yl]-[1,2,4]triazolo[1,5-a]pyridine-2-carboxamide], the DSF is reported as “***** (>2.5° C.=*****)”.
In the case of `Cc1cc(N2CC[C@](C)(c3ccccc3)C2)cn2nc(C(=O)NC3CC4CCC3N4c3cccc(C(=O)O)n3)nc12` (stereo partly shown) [Compound 668], the DSF is reported as “***** (>2.5° C.=*****)”.
For `Cc1nc(C2C3COC2(c2nc4c(C)cc(N5CC[C@](C)(c6ccccc6)C5)cn4n2)C3)n(C)n1` (stereo partly shown) [Compound 493], the DSF was “***** (>2.5° C.=*****)”.
With `Cc1n[nH]c(C2C3COC2(c2nc4c(CN)cc(N5CC[C@](C)(c6ccccc6)C5)cn4n2)C3)n1` (stereo partly shown) [Compound 483] the DSF was “***** (>2.5° C.=*****)”.
`Cc1nc(CNC(=O)C23COC(c4nc5c(C)cc(N6CC[C@](C)(c7ccccc7)C6)cn5n4)(C2)C3)n[nH]1` [Compound 448] was tested, and the DSF was “***** (>2.5° C.=*****)”.
In the case of `Cc1cc(N2CC[C@](C)(c3ccccc3)C2)cn2nc(C(=O)N[C@H]3[C@@H]4CN(c5cccc(C(=O)O)n5)C[C@@H]43)nc12` [Compound 628], the DSF is reported as “***** (>2.5° C.=*****)”.
With `Cc1cc(N2CC[C@](C)(c3ccccc3)C2)cn2nc(C34CC(CO3)C4c3nc(NS(=O)(=O)C4CC(C)(C(=O)O)C4)n[nH]3)nc12` (stereo partly shown) [Compound 565] the DSF was “***** (>2.5° C.=*****)”.
In the case of `Cc1cc(N2CC[C@](C)(c3ccccc3)C2)cn2nc(C(=O)N3CCC4C3CCN4c3cccc(C(=O)O)n3)nc12` (stereo partly shown) [Compound 611], the DSF is reported as “***** (>2.5° C.=*****)”.
`Cc1cc(N2CC[C@@](C)(n3ccc(C(F)(F)F)n3)C2)cn2nc(C34CC(N)(CO3)C4)nc12` [Compound 471, (R)-1-(8-methyl-6-(3-methyl-3-(3-(trifluoromethyl)-1H-pyrazol-1-yl)pyrrolidin-1-yl)-[1,2,4]triazolo[1,5-a]pyridin-2-yl)-2-oxabicyclo[2.1.1]hexan-4-amine] was tested, and the DSF was “**** (>1.5-2.5° C.=****)”.
For `Cc1cc(N2CC[C@](C)(c3ccccc3)C2)cn2nc(C(=O)N3CCC(O)(CNc4cccc(C(=O)O)n4)C3)nc12` (stereo partly shown) [Compound 686], the DSF was “***** (>2.5° C.=*****)”.
In the case of `Cc1cc(N2CC[C@](C)(c3ccccc3)C2)cn2nc(C34CC(CO3)C4COC3CC4(C3)CN(c3ccnc(O)c3)C4)nc12` (stereo partly drawn) [Compound 497, 4-(6-((1-(8-methyl-6-((R)-3-methyl-3-phenylpyrrolidin-1-yl)-[1,2,4]triazolo[1,5-a]pyridin-2-yl)-2-oxabicyclo[2.1.1]hexan-5-yl)methoxy)-2-azaspiro[3.3]heptan-2-yl)pyridin-2-ol], the DSF is reported as “***** (>2.5° C.=*****)”.
`COC(C)(CS(=O)(=O)NCC12COC(c3nc4c(C)cc(N5CC[C@](C)(c6ccccc6)C5)cn4n3)(C1)C2c1n[nH]c(C)n1)C(=O)O` (stereo partly shown) [Compound 585] was tested, and the DSF was “***** (>2.5° C.=*****)”.
